In patent US20220260566A1, “IMMUNITY MECHANISM AND THERAPEUTIC DRUG FOR GASTROINTESTINAL DISEASES” (GUANGZHOU WOMEN AND CHILDREN'S MEDICAL CENTER, priority 2018, published 2022):
Entries after “also recorded” stand apart in the source; their conditions may differ.

Legend:
[1] = test system: HEK 293T cells stably transfected with the cAMP reporter gene GloSensor-22F cAMP plasmid; test: cAMP reporter assay (GloSensor-22F cAMP plasmid); assay type: cell-based; details: HEK 293T reporter cells; 3 independent experiments; forskolin as positive control
Text: FIG. 4: Highly inflammatory macrophage and dendritic cell (DC) infiltration in colitis and IBD patients compared to control subjects. […] The red and navy blue dots represent individual genes that pass the P value (≤0.05) and log 2 (Fold Change) (red, ≥1; navy blue, ≤−1) threshold. […] Forskolin, which increases the concentration of cAMP by activating adenylate cyclase, was used as a positive control. […] Colonic mucosa sections were stained with anti-CD68 to mark macrophages, and stained with NLRP3 and ASC for inflammasome. […] The P value was calculated using the Mann-Whitney U test, *, P<0.05****, P<0.0001. (D) Heat map showing the relative expression of colitis/IBD risk genes in myeloid cells.

[2] = test system: TNF-α in monocytes and macrophages; test: TNF-α expression in monocytes and macrophages in vitro; assay type: cell-based; details: in vitro and in vivo
[3] = test system: CD39 in colonic intraepithelial T cells; test: CD39 expression of immune cells in DSS colitis model (flow cytometry); assay type: in vivo, mice
Method: From the second day of treatment, DSS was added to drinking water (2.5%) for 7 days. The control mice were given regular food and water. In order to analyze colon immune cells, the present invention harvests the colon and removes excess fat. After washing with ice-cold PBS, the colon was cut into pieces approximately 0.3-0.5 cm in length. After gentle rotation in the dissociation solution (HBSS without Ca/Mg, with 5 mM EDTA and 2% FBS) at 37° C. for 40 minutes, the intraepithelial lymphocytes (IEL) were pelleted, washed and resuspended in staining buffer (PBS 2% FBS). The remaining undigested colon tissue samples were gently rotated in the digestion solution (RPMI1640 containing 2% FBS, 2 mg/mL collagenase IV, 0.4 U/mL dispase and 1 μg/mL DNase) at 37° C. for 45 minutes. Pellet lamina propria lymphocytes (LPL), wash and resuspend in staining buffer. T cell plates (CD45-APC-Cy7, CD3-BV711, […]-Cy7, CD8-BV785, γδT-BV421 and CD4-APC) or myeloid plates (MHC II-BV550, CD11b-BV510 and CD39-PE-Cy7) were stained on ice for 30 minutes, and then analyzed on a FACSAria SORP flow cytometer (BD Science).

[4] = test system: platelet aggregation (CD41 clusters) in the colonic mucosa; test: Immunofluorescence of colonic mucosa before and after treatment: platelet aggregation (CD41 clusters); assay type: in vivo, human; details: children, after vs before dipyridamole treatment
Method: (§1) Use formalin-fixed and paraffin-embedded paraffin blocks to prepare 3 um tissue sections. After deparaffinization, blocking antibodies (PBS containing 5% normal donkey or goat serum and 0.3% Triton X-100) are incubated for 1 hour at room temperature, and washed with PBS Then incubate the primary antibody (CD39, CD41, pT71-ATF2 or pS133-CREB) overnight in a 4 C dark humidified box. Then, after washing with PBS, incubate the secondary antibodies (goat anti-mouse IgG1 combined with AF488 and goat anti-rabbit IgG combined with Cy3) for 1 hour at room temperature, and then incubate the anti-quencher containing DAPI. Then, use the Lycra automatic inverted fluorescence microscope to observe and take pictures (20×0.75), and use the Lycra X image analysis software to process the brightness, luminosity, contrast and color balance of the image to restore the image as much as possible. For each observation condition, 4-5 areas in each mucosal section were randomly selected for observation, and the CD41 aggregation (fluorescence diameter greater than 7 μm) was measured and counted using the card X image analysis software.

children with colitis = test: Clinical trial of dipyridamole in children with colitis (Table 5, 23 patients); assay type: in vivo, human
Text: In the following, it is investigated whether the cAMP activation pathway regulates CD39 expression in T cells. […] The clinical trial was approved by the Ethical Review Committee of Guangzhou Women and Children's Medical Center and registered in the China Clinical Trial Registration Center (ChiCTR1800019803). All patients or family members signed an informed consent form.

CD39 = test: Immunofluorescence of colonic mucosa before and after treatment: CD39 expression; assay type: in vivo, human
Method: as §1

[5] = test system: CD68+ macrophages and TNF-α in the colonic mucosa; test: Immunofluorescence of colonic mucosa before and after treatment: CD68+ macrophages, TNF-α, PDE4B; assay type: in vivo, human; details: for PDE4B: summary of immunological results after treatment; for macrophage invasion in colonic mucosa: children with colitis or IBD, after vs before methylprednisolone or anti-TNF-α, FIG. 6C
[6] = test system: subjects with colitis confirmed by endoscopy and subjects with undefined IBD (IBDU); test: Clinical trial of dipyridamole in 9 children with endoscopy-confirmed colitis or undefined IBD (Table 6); assay type: in vivo, human
Text: The inventors also conducted clinical trial studies in subjects with colitis confirmed by endoscopy and subjects with undefined IBD (IBDU) (Table 6).
In Table 6, PLT stands for platelet count, HGB stands for hemoglobin, and ALB stands for albumin.

[7] = test system: CD39 expression in CD8+ T cells; test: CD39 expression during CD8+ T cell activation; assay type: cell-based; details: dose-dependent manner
[8] = test system: DSS-induced acute colitis; test: DSS-induced acute colitis model; assay type: in vivo, C57BL/6J mice
Method: Male C57BL/6J mice (20-22 g), six to eight weeks old, were purchased from Guangzhou University of Traditional Chinese Medicine. The mice were given regular food and water before the experiment. Weight-matched mice were used in all studies Animal research was approved by the Animal Care and Utilization Committee of Guangzhou Medical University (permit number: 2019-471) and was conducted in accordance with institutional guidelines.
The control mice were given regular food and water. The mice were monitored daily and if the weight loss exceeded 20%, they were euthanized.
For hematoxylin and eosin (H&E) staining, the colon was fixed in 4% paraformaldehyde (PFA) for 24 hours and embedded in paraffin. Prepare sections (3 μm) and deparaffinize before staining
To detect platelet aggregation in colon slices, the tissue was fixed in 4% PFA for 24 hours, cryoprotected in 30% sucrose for 48 hours, and then embedded in an Optimal Cutting Temperature (O.C.T.) compound. The frozen sections (5 μm) were washed, blocked with 10% goat serum, and incubated with anti-mouse CD41-FITC (133903, BioLegend, CA, USA) at 4° C. overnight.
After washing with PBS to remove unbound antibodies, the sections were fixed with […] anti-fading fixation medium (H-1200, Vector Laboratories, CA, USA) with DAPI for nuclear staining The immunofluorescence staining and image processing were performed as described above. Platelet aggregates are defined as CD41+ clusters (diameter >7 μm). Leica X image analysis software (Leica, Hamburg, Germany) and ImageJ software (National Institutes of Health, Maryland, USA) were used to count and analyze the number of CD41+ clusters per square millimeter. For each colon section, platelet aggregation in 5 randomly selected areas was recorded.
In order to analyze the expression of cytokines, the residual mesenteric fat in the colon was removed, weighed and dispersed in a single cell suspension with 1 mL of PBS. After centrifugation at 1000×g for 10 minutes at 4° C., the supernatant was taken to determine the concentration of TNF-α, IL-1β and IL-6 by ELISA.

activated ATF2 and CREB = test: Immunofluorescence of colonic mucosa: activated ATF2 and CREB co-expressed with CD39; assay type: in vivo, human; details: children, after vs before dipyridamole treatment
Method: [Worded in the source for another target; this target is reported under the same test.] as §1, with “[…]-ATF2” for “pT71-ATF2”, “[…]-CREB)” for “pS133-CREB)”, “Lycra X” left out

[9] = test system: children with colitis or IBD; test: Children with colitis or IBD treated with methylprednisolone or anti-TNF-α antibody: colonoscopy and clinical status; assay type: in vivo, human
[10] = children, after vs before dipyridamole (n=7), FIG. 7H
[11] = dipyridamole 10 mg/kg twice a day vs DSS alone, 3% DSS
[12] = dipyridamole 10 mg/kg vs DSS alone

Compound: OCCN(CCO)c1nc(N2CCCCC2)c2nc(N(CCO)CCO)nc(N3CCCCC3)c2n1 [dipyridamole]
- cytoplasmic cAMP concentration [1]: significantly increase
- expression of TNF-α in monocytes and macrophages [2]: inhibit
- CD39 expression in colonic epithelial CD4, CD8 and γδT cells ([3]; dipyridamole 5 mg/kg or 50 mg/kg for 8 days, 2.5% DSS, dose-dependent manner): significantly increased
- expression of CD39 in CD4, CD8 and γδT cells ([3]; intraperitoneal injection of dipyridamole at 50 mg/kg): significantly increased
- platelet aggregation in the colonic mucosa (CD41 clusters) [4]: significantly reduced
- Severity score, Post-treatment, median (children with colitis; after dipyridamole 3-5 mg/kg/day, treatment duration median 4 (2-12) weeks, 23 children, range 0-5, P < 0.0001 vs pre-treatment): 1
- Platelet counts, Post-treatment, median (children with colitis; after dipyridamole 3-5 mg/kg/day, 23 children, range 217-497, reference range 140-440, P = 0.0001 vs pre-treatment): 296 10^9/L
- clinical severity score after treatment (children with colitis; after vs before dipyridamole (FIG. 3d)): significantly reduced
- colon lining (colonoscopy appearance) (children with colitis; after vs before dipyridamole (FIG. 3d, 3e)): significantly improved
- Severity score, Pre-treatment, median (children with colitis; baseline before dipyridamole, 23 children, range 4-14, scoring criteria of Table 4): 9
- Platelet counts, Pre-treatment, median (children with colitis; baseline before dipyridamole, 23 children, range 235-790, reference range 140-440): 370 10^9/L
- adverse reactions (children with colitis; children with colitis, dipyridamole 3-5 mg/kg/day): no reports of adverse reactions
- expression of CD39 in CD8 and CD4 T cells and macrophages of colonic mucosa (CD39; children, after vs before dipyridamole treatment): increase
- TNF-α expression in colonic mucosa [5, 10]: significantly reduced
- macrophage infiltration in colonic mucosa [5, 10]: significantly reduced
- PDE4B [5]: inhibited
- clinical, endoscopic and histological severity scores ([6]; after vs before dipyridamole (FIG. 7E, Table 6)): significantly improved
- adverse reactions ([6]; dipyridamole 3-5 mg/kg/day for 8 to 12 weeks): No obvious adverse reactions
- CD39 expression during CD8+ T cell activation [7]: significantly increased
- body weight [8, 11]: significantly increased
- colon length [8, 11]: significantly increased
- epithelial integrity and structure (HE stained colon sections) [8, 12]: improved
- platelet aggregation in colonic mucosa (CD41+ clusters) [8, 12]: reduced
- TNF-α expression in colon mucosa ([8]; dipyridamole vs DSS alone, ELISA): reduced
- co-localized activated transcription factors ATF2 and CREB with CD39 in colonic mucosa (activated ATF2 and CREB): increased; also recorded: enhanced

Compound: C[C@H]1C[C@@H]2[C@H]([C@@H](O)C[C@@]3(C)[C@H]2CC[C@]3(O)C(=O)CO)[C@@]2(C)C=CC(=O)C=C12 [methylprednisolone]
- macrophage invasion in colonic mucosa [5]: no effect
- PDE4B [5]: no effect

Compound: anti-TNF-α: Anti-TNF-α drug (Infliximab), anti-TNF-α antibody biologic used to treat colitis and IBD
- expression of CD39 (CD39 IET) in colonic mucosa (CD39; children with colitis or IBD, after vs before methylprednisolone (n=5) or anti-TNF-α (n=6), FIG. 6C): no effect
- macrophage invasion in colonic mucosa [5]: no effect
- appearance of the colon (colonoscopy) ([9]; after vs before treatment, FIG. 6B): improved
- clinical status / clinical symptoms ([9]; patients with inflammatory bowel disease, for methylprednisolone some patients only): improved
